# From PubChem BioAssay (NCI)
#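 Five compound concentrations were applied to cells in 96-well plates for 48 hours; endpoints were derived by simple linear interpolation of the resulting dose-response curve. GI50 marks 50% less growth. TGI: concentration producing complete growth inhibition.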
# Tests used:
# Experiment in all cases: DTP human tumour cell line panel, 48 h
# KM12 colon = system: KM12 colon
# HOP-92 NSCLC = system: HOP-92 NSCLC
# SK-MEL-28 melanoma = system: SK-MEL-28 melanoma
# MALME-3M melanoma = system: MALME-3M melanoma
# OVCAR-4 ovarian = system: OVCAR-4 ovarian
# K-562 leukemia = system: K-562 leukemia
# HCT-15 colon = system: HCT-15 colon
# HCC-2998 colon = system: HCC-2998 colon
# RPMI-8226 leukemia = system: RPMI-8226 leukemia
# OVCAR-8 ovarian = system: OVCAR-8 ovarian
# NCI-H522 lung = system: NCI-H522 lung
# MOLT-4 leukemia = system: MOLT-4 leukemia
# DU-145 prostate = system: DU-145 prostate
# SF-268 CNS = system: SF-268 CNS
# PC-3 prostate = system: PC-3 prostate
# OVCAR-3 ovarian = system: OVCAR-3 ovarian
# MDA-MB-231 breast = system: MDA-MB-231 breast
# 786-0 renal = system: 786-0 renal
# UACC-257 melanoma = system: UACC-257 melanoma
# M14 melanoma = system: M14 melanoma
# UACC-62 melanoma = system: UACC-62 melanoma
# SNB-19 CNS = system: SNB-19 CNS
# SR leukemia = system: SR leukemia
# MDA-MB-435 = system: MDA-MB-435
# A498 renal = system: A498 renal
# SK-MEL-5 melanoma = system: SK-MEL-5 melanoma
# NCI/ADR-RES ovarian = system: NCI/ADR-RES ovarian
# UO-31 renal = system: UO-31 renal
compound,measurement,setting,value
O=C1Nc2ccccc2/C1=C/C(=N/c1nnc(-c2ccccc2)s1)c1ccccc1,GI50,KM12 colon,5.5 µM
same,TGI,KM12 colon,17.9 µM
same,GI50,HOP-92 NSCLC,0.987 µM
same,TGI,HOP-92 NSCLC,2.93 µM
same,GI50,SK-MEL-28 melanoma,2.68 µM
same,TGI,SK-MEL-28 melanoma,6.93 µM
same,GI50,MALME-3M melanoma,2.17 µM
same,TGI,MALME-3M melanoma,6.67 µM
same,GI50,OVCAR-4 ovarian,2.63 µM
same,TGI,OVCAR-4 ovarian,12.2 µM
same,GI50,K-562 leukemia,1.69 µM
same,TGI,K-562 leukemia,11 µM
same,GI50,HCT-15 colon,1.63 µM
same,TGI,HCT-15 colon,4.01 µM
same,GI50,HCC-2998 colon,8.58 µM
same,TGI,HCC-2998 colon,21.5 µM
same,GI50,RPMI-8226 leukemia,2.14 µM
same,TGI,RPMI-8226 leukemia,5.21 µM
same,GI50,OVCAR-8 ovarian,2.77 µM
same,TGI,OVCAR-8 ovarian,9.35 µM
same,GI50,NCI-H522 lung,0.449 µM
same,TGI,NCI-H522 lung,1.06 µM
same,GI50,MOLT-4 leukemia,2.23 µM
same,TGI,MOLT-4 leukemia,6.54 µM
same,GI50,DU-145 prostate,2.7 µM
same,TGI,DU-145 prostate,7.77 µM
same,GI50,SF-268 CNS,4.3 µM
same,TGI,SF-268 CNS,16.1 µM
same,GI50,PC-3 prostate,2 µM
same,TGI,PC-3 prostate,5.52 µM
same,GI50,OVCAR-3 ovarian,1.38 µM
same,TGI,OVCAR-3 ovarian,2.8 µM
same,GI50,MDA-MB-231 breast,1.92 µM
same,TGI,MDA-MB-231 breast,4.95 µM
same,GI50,786-0 renal,1.79 µM
same,TGI,786-0 renal,3.55 µM
same,GI50,UACC-257 melanoma,3.81 µM
same,TGI,UACC-257 melanoma,10.6 µM
same,GI50,M14 melanoma,3.87 µM
same,TGI,M14 melanoma,14.3 µM
same,GI50,UACC-62 melanoma,1.72 µM
same,TGI,UACC-62 melanoma,3.74 µM
same,GI50,SNB-19 CNS,12.3 µM
same,TGI,SNB-19 CNS,25 µM
same,GI50,SR leukemia,0.957 µM
same,TGI,SR leukemia,6.76 µM
same,GI50,MDA-MB-435,2.96 µM
same,TGI,MDA-MB-435,9.32 µM
same,GI50,A498 renal,6.78 µM
same,TGI,A498 renal,21 µM
same,GI50,SK-MEL-5 melanoma,6.57 µM
same,TGI,SK-MEL-5 melanoma,17.9 µM
same,GI50,NCI/ADR-RES ovarian,3.1 µM
same,TGI,NCI/ADR-RES ovarian,10.3 µM
same,GI50,UO-31 renal,1.45 µM
same,TGI,UO-31 renal,3.31 µM
